In US20240208950A1, “COMPOSITIONS AND METHODS FOR TREATMENT OF CERVICAL AND OVARIAN CANCER” (SOUTH DAKOTA BOARD OF REGENTS, priority 2021, published 2024):

Columns and labels:
SiHa cells = assay: Colony formation assay, SiHa; type: cell-based, human; conditions: SiHa, 2.5, 5 and 7.5 μM
Method: FIGS. 5A and 5B show representative colony images of CaSki cells (FIG. 5A) and SiHa cells (FIG. 5B) treated with various concentrations of ORM-Br ranging from […]. FIGS. 5C and 5D represent the quantification of colony formation in CaSki cells (FIG. 5C) and SiHa cells (FIG. 5D) treated with various concentrations of ORM-Br ranging from 0 to 7.5 μM.
To determine the effect of Br-ORM on clonogenic potential of CaSki and SiHa cells, a colony formation assay was performed. In brief, 500 cells were seeded per well in a 6-well plate and allowed to stand for the next three days. The cells were treated with Br-ORM with different concentrations (2.5, 5, and 7.5 μM) for seven days and then followed by normal growth media. […] Colonies were fixed in methanol, stained with haematoxylin, and counted using UVP 810 software.
FIG. 13. […] Cell viability was assessed by MTS assay. […] Bar graphs indicating quantification of colony formation in CaSki (i), and SiHa (ii) cells of cervical cancer with respect to vehicle control. […] Briefly, cervical cancer cells were treated with Br-ORM (10 μM) for 24 hours and the apoptosis inducing effect of Br-ORM was analyzed by Annexin V staining. […] The equal loading of protein in each lane was determined by probing the blots with β-actin antibody (FIG. 13F). […] Br-ORM arrests cell cycle in G1/S phase as determined by flow cytometry. […]

CaSki cells = assay: Apoptosis analysis by Annexin V staining, CaSki; type: cell-based, human; conditions: 10 μM, 24 hours
Method: The apoptosis inducing effect of Br-ORM on cervical cells was analyzed by Annexin V-FLUOS staining kit (Roche Diagnostic Corp. Indianapolis, IN, USA). The procedure was followed as described in the vendor's protocol. Briefly, 60% confluent cervical cancer cells (CaSki and SiHa) were treated with Br-ORM (10, 15, and 20 μM) and kept in a CO2 incubator at 37° C. for 24 hours. Control group cells were treated with DMSO as the vehicle. Cells were washed with PBS (1×) and kept in Annexin-V solution for 20 minutes. Images were captured in bright and green field by fluorescent microscope.
It was observed that Br-ORM exerts potent growth inhibitory effects, so the effect of Br-ORM on apoptosis induction was further examined. Cervical cancer cells were treated with Br-ORM (10 μM) for 24 hours and the apoptosis inducing effect of Br-ORM was analyzed by Annexin V staining and Western blot analysis for cleavage in PARP protein.

COc1ccc2c(c1)OC(C)(C)C(c1ccc(Br)cc1)C2c1ccc(OCCN2CCCC2)cc1 (stereo not drawn) [ORM-Br]
colony formation (clonogenic potential) (SiHa cells): suppresses the clonogenic potential | colony formation (clonogenic potential) (SiHa cells; listed as Br-ORM): significantly decreased the number of colonies | apoptosis induction (Annexin V staining) (CaSki cells): induced apoptosis
